Measurements from patent US7537765B2, “Inhibition of HIV-1 replication by disruption of the processing of the viral capsid-spacer peptide 1 protein” (priority 2003, dated 2009).
Where two headings read alike, the source gives them in different places.

What was measured:
[1] = system: primary Clade B HIV-1 isolates; experiment: Virus inhibition assay, primary HIV-1 isolates in PBMC, p24 endpoint; assay type: cell-based
Experimental: A robust virus inhibition assay was used to evaluate the anti-viral activity of DSB against primary HIV-1 isolates propagated in PMBC. Briefly, serial dilutions of DSB were made in medium into 96-well tissue culture plates. 25-250 TCID50 of virus and 5×10^5 PHA-stimulated PBMCs were added to each well. On days 1, 3 and 5 post-infection, media was removed from each well and replaced with fresh media containing DSB at the appropriate concentration. On day 7 post-infection, culture supernatant was removed from each well for p24 detection of virus replication and 50% inhibitory concentrations (IC50) were calculated by standard methods.

[2] = system: HIV-1 infected MAGI cells; assay type: cell-based; settings: HIV-1 infected MAGI cells
Source text: To distinguish the inhibitory activity of DSB against early and late replication targets, a multinuclear activation of a galactosidase indicator (MAGI) assay was used. In this assay, the targets are HeLa cells stably expressing CD4, CXCR4, CCR5 and a reporter construct consisting of the—galactosidase gene (modified to localize to the nucleus) driven by a truncated HIV-1 LTR. Infection of these cells results in expression of Tat that drives activation of the β-galactosidase reporter gene. Expression of β-galactosidase in infected cells is detected using the chromogenic substrate X-gal.

[3] = system: HIV-1 NL4-3 SP1 point deletion mutants; experiment: CA-SP1 processing of NL4-3 SP1 point deletion mutants in transfected HeLa cells (Western blot); assay type: cell-based
Experimental: To characterize the effect of deletion or substitution on viral particle production and Gag polyprotein processing, wild-type HIV-1 NL4-3 or SIVmac239 and respective mutant proviral DNAs were transfected into HeLa cells by employing FuGENE 6 transfection reagent (Roche). Briefly, cells were seeded into a 6-well plate (Corning) at a concentration of 0.5×10^5 per well the day before transfection to reach 60 to 80% confluence on the day of transfection. For each transfection, 3 μl of FuGENE 6 was diluted into 100 μl of serum-free DMEM followed by the addition of 1 μg of DNA. After gently mixing, the mixture of DNA-lipid complexes was gently added drop wise into the cells containing 2 ml of complete DMEM medium. Twenty-four hours post-transfection, medium containing DNA-FuGENE 6 complexes was removed, 2 ml of fresh DMEM was added into the transfected cells. […] The level of viral particle production for wild type NL4-3 and point deletion mutants was determined by p24 antigen capture ELISA (ZeptoMetrix, Buffalo, N.Y.). […]
Sensitivity to DSB was determined in experiments that characterized the effect of DSB on a late step in Gag processing, CA-SP1 cleavage.
Specifically, these assays measured the ability of DSB to disrupt CA-SP1 processing.

SIVmac239 chimeric virus = experiment: Gag processing of SIVmac239 chimeric mutants with HIV-1 CA-SP1 residues (Western blot); assay type: cell-based; settings: SIV DM chimeric virus (printed SWV.DM), 1 μg/ml
Source text: A panel of SIV chimeric constructs harboring various residues of NL4-3 CA-SP1 boundary region was generated using the SIVmac239 molecular clone by employing PCR and cloning procedures described above. SIV mac239 was used to generate the SIV DD and DE constructs. The SIV DD construct was used to generate SIV DM. Different SIV chimeric constructs were produced in the PCR by varying respective mutagenic upstream and downstream primers corresponding to each chimera (Table 1). Each of these parallel two adjacent PCR fragments was gel purified and directly used without phospohorylation treatment for a subsequent amplification with universal upstream primer (Primer. 31) and downstream primer (Primer 32). This product was gel purified, digested with BamHI and SbfI, and then ligated into the BamHI and SbfI sites of SIVmac239 proviral DNA clone. The proviral DNA clones were then screened by automatically sequencing using a Taq Dye Deoxy Terminator cycle Sequencer Kit (Applied Biosystems) individually using an internal primer (Primer. 39). Following the verification the mutations the proviral DNA clones were used for various future studies. […]
Residues A364 through V370 were inserted into the analogous position of the Gag SP1 domain in the DSB-resistant retrovirus SIV (Mac 239 isolate). […] Next, the effect of DSB on the Gag processing phenotype of each of the chimeric viruses was determined. […]

HIV = settings: chronically-infected cells, Kanamoto et al.; cited from earlier work

For C=C(C)[C@@H]1CC[C@]2(C(=O)O)CC[C@]3(C)[C@H](CC[C@@H]4[C@@]5(C)CC[C@H](OC(=O)CC(C)(C)C(=O)O)C(C)(C)[C@@H]5CC[C@]43C)[C@@H]12 [DSB, 3-O-(3′,3′-dimethylsuccinyl)betulinic acid], the IC50 ([1]; isolate 92HT599, co-receptor X4, PBMC, p24 day 7, read-out: IC50) was 9.8 nM, the IC50 ([1]; isolate 92US723, co-receptor R5/X4, PBMC, p24 day 7, read-out: IC50) was 4.6 nM and the IC50 ([1]; isolate 3401N*, co-receptor R5/X4, PBMC, p24 day 7, read-out: IC50) was 12 nM. For the same compound, the IC50 ([1]; isolate 19101N*, co-receptor R5, PBMC, p24 day 7, read-out: IC50) was 3.8 nM, the IC50 ([1]; isolate 22101N*, co-receptor R5/X4, PBMC, p24 day 7, read-out: IC50) was 2.6 nM and the IC50 ([1]; isolate BZ167, co-receptor X4, PBMC, p24 day 7, read-out: IC50) was 4 nM. For the same compound, the IC50 ([1]; isolate US1, co-receptor R5, PBMC, p24 day 7, read-out: IC50) was 5.6 nM, the IC50 ([1]; mean over the panel of primary isolates, read-out: IC50, Mean) was 6.1 nM and the “% Decrease (β-galactosidase expression)” value [2] was 12%. The “effect on CA-SP1 processing” value ([3]; point deletions starting with residue T372 and extending away from the cleavage site, 1 μg/ml) was “fully sensitive to DSB-induced disruption of CA-SP1 processing”, the “effect on CA-SP1 processing” value ([3]; single residue deletion at any of positions E365 through V370, 1 μg/ml) was “significantly reduces the affect of DSB on CA-SP1 processing” and the Gag processing phenotype (SIVmac239 chimeric virus) was “indicative of sensitivity to DSB”. For the same compound, the release of virus (HIV) was “inhibits release of virus from chronically-infected cells”.
